Activity calls are given as the source filed them. No cut-off for these calls is given here.
Experiments:
[1] = Antiproliferative activity against human PC3 cells measured after 72 hrs by Alamar blue dye-based fluorescence analysis; format: functional, cell-based, PC-3; conditions: for EC50: Homo sapiens, PC-3, 72 h
[2] = Antiproliferative activity against human SKHEP1 cells measured after 72 hrs by Alamar blue dye-based fluorescence analysis; format: functional, cell-based; conditions: sk-hep1
[3] = Antiproliferative activity against human 143B cells measured after 72 hrs by Alamar blue dye-based fluorescence analysis; format: functional, cell-based
[4] = Antiproliferative activity against human HT1080 cells measured after 72 hrs by Alamar blue dye-based fluorescence analysis; format: functional, cell-based; conditions: ht-1080
[5] = Antiproliferative activity against human MCF7-218 cells measured after 72 hrs by Alamar blue dye-based fluorescence analysis; format: functional, cell-based
[6] = Antiproliferative activity against human BT474 cells measured after 72 hrs by Alamar blue dye-based fluorescence analysis; format: functional, cell-based; conditions: bt-474
[7] = Antiproliferative activity against human MCF7-FL cells measured after 72 hrs by Alamar blue dye-based fluorescence analysis; format: functional, cell-based
[8] = Antiproliferative activity against human HepG2 cells measured after 72 hrs by Alamar blue dye-based fluorescence analysis; format: functional, cell-based
[9] = Antiproliferative activity against human 786-O cells measured after 72 hrs by Alamar blue dye-based fluorescence analysis; format: functional, cell-based; conditions: 786-0
[10] = Antiproliferative activity against human HCT116 cells measured after 72 hrs by Alamar blue dye-based fluorescence analysis; format: functional, cell-based; conditions: hct-116
[11] = Antiproliferative activity against human MIAPaCa2 cells measured after 72 hrs by Alamar blue dye-based fluorescence analysis; format: functional, cell-based; conditions: mia paca-2
[12] = Antiproliferative activity against human BxPC3 cells measured after 72 hrs by Alamar blue dye-based fluorescence analysis; format: functional, cell-based; conditions: bxpc-3
[13] = Antiproliferative activity against human COLO205 cells measured after 72 hrs by Alamar blue dye-based fluorescence analysis; format: functional, cell-based; conditions: colo 205
[14] = Antiproliferative activity against human LNCAP cells measured after 72 hrs by Alamar blue dye-based fluorescence analysis; format: functional, cell-based
[15] = target: Serine/threonine-protein kinase mTOR (Homo sapiens) (UniProt P42345); experiment: Inhibition of mTOR in human U87 cells assessed as reduction in p4EBP1 phosphorylation by Western blot method; format: cell-based; conditions: U-87MG ATCC
[16] = target: Serine/threonine-protein kinase mTOR (Homo sapiens) (UniProt P42345); experiment: Inhibition of mTOR in human U87 cells assessed as reduction in pAKT phosphorylation at residue […] by Western blot method; format: cell-based; conditions: U-87MG ATCC
[17] = Toxicity in mouse xenografted with human U87 cells assessed as weight loss at 0.3 to 3 mg/kg measured after 14 days; format: organism-based, U-87MG ATCC; conditions: in vivo, 336 h
[18] = target: Ribosomal protein S6 kinase beta-1 (Homo sapiens) (UniProt P23443); experiment: Inhibition of mTOR pS6K in human U87 cells assessed as inhibition of 4EBP1 phosphorylation by Western blot analysis; format: cell-based; conditions: U-87MG ATCC
Ribosomal protein S6 kinase beta-1 (Homo sapiens), sequence (P23443 whole entry, looked up): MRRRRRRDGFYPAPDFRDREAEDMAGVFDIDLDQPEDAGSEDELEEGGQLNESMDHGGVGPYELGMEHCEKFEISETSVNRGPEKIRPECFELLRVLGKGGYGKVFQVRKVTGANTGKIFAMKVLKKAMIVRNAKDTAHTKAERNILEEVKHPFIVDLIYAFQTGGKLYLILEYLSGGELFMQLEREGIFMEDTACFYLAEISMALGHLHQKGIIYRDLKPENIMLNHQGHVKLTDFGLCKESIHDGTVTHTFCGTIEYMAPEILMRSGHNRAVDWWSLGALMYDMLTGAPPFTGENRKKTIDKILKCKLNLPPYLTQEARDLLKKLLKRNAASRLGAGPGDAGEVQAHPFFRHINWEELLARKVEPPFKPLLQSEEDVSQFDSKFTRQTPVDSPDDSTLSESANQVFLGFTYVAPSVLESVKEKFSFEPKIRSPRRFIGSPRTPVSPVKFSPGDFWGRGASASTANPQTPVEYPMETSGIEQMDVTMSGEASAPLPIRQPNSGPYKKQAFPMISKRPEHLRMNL

[19] = test system: U-87MG ATCC; experiment: Antitumor activity against human U87 cells xenografted in mouse assessed as tumor growth inhibition at 0.3 to 3 mg/kg measured after 14 days; format: functional, organism-based
[20] = target: Ribosomal protein S6 kinase beta-1 (Homo sapiens) (UniProt P23443); experiment: Inhibition of mTOR pS6K in human U87 cells assessed as inhibition of RAS40 phosphorylation by Western blot analysis; format: cell-based; conditions: U-87MG ATCC
[21] = target: Serine/threonine-protein kinase mTOR (Homo sapiens) (UniProt P42345); experiment: Inhibition of mTOR in human U87 cells assessed as reduction in pRAS40 phosphorylation by Western blot method; format: cell-based; conditions: U-87MG ATCC
[22] = test system: U-87MG ATCC; experiment: Inhibition of mTORC1/2 in human U87 cells assessed as inhibition of Akt-phosphorylation at S473 residue by Western blot analysis; format: cell-based

CC(C)n1cc(-c2ccc3oc(N)nc3c2)c2c(N)ncnc21
EC50 [1]: < 0.1 µM

CC(=O)Nc1nc2cc(-c3nn(C(C)C)c4ncnc(N)c34)ccc2o1
EC50 [1]: < 1 µM

CC(=O)Nc1noc2cc(-c3nn(C(C)C)c4ncnc(N)c34)ccc12
EC50 [1]: > 10 µM

CC(=O)N1CCC(n2nc(-c3ccc4oc(N)nc4c3)c3c(N)ncnc32)CC1
EC50 [1]: < 10 µM

CC(C)n1nc(-c2ccc3c(N)noc3c2)c2c(N)ncnc21
EC50 [1]: > 10 µM

Nc1nc2cc(-c3nn(C4CCC(N5CCOCC5)CC4)c4ncnc(N)c34)ccc2o1 (configuration not stated)
EC50 [1]: < 1 µM

CC(C)n1nc(-c2ccc3onc(N)c3c2)c2c(N)ncnc21
EC50 [1]: > 10 µM

Nc1nc2cc(-c3cn(C4CCOCC4)c4ncnc(N)c34)ccc2o1
EC50 [1]: < 0.1 µM

CC(C)n1nc(-c2ccc3nc(N)oc3c2)c2c(N)ncnc21
EC50 [1]: < 10 µM

Nc1nc2cc(-c3nn(C4CCOCC4)c4ncnc(N)c34)ccc2o1
EC50 [1]: < 0.1 µM

COc1cccc2c1C(=O)c1c(O)c3c(c(O)c1C2=O)C[C@@](O)(C(=O)CO)C[C@@H]3O[C@H]1C[C@H](N)[C@H](O)[C@H](C)O1 [DOXORUBICIN]
IC50 [2]: Active
IC50 [3]: Active
IC50 [4]: Active
IC50 [5]: Active
IC50 [6]: Active
IC50 [7]: Active

O=c1[nH]cc(F)c(=O)[nH]1 [FLUOROURACIL]
IC50 [8]: Active
IC50 [9]: Active
IC50 [10]: Active
IC50 [11]: Active
IC50 [12]: Active

CCc1c2c(nc3ccc(OC(=O)N4CCC(N5CCCCC5)CC4)cc13)-c1cc3c(c(=O)n1C2)COC(=O)[C@]3(O)CC [IRINOTECAN]
IC50 ([1]; pc-3): Active
IC50 [13]: Active

CC(=O)O[C@H]1C(=O)[C@@]2(C)[C@H]([C@H](OC(=O)c3ccccc3)[C@]3(O)C[C@H](OC(=O)[C@H](O)[C@@H](NC(=O)c4ccccc4)c4ccccc4)C(C)=C1C3(C)C)[C@]1(OC(C)=O)CO[C@@H]1C[C@@H]2O [PACLITAXEL]
IC50 [14]: Active

CC(C)n1nc(-c2ccc3oc(N)nc3c2)c2c(N)ncnc21 [SAPANISERTIB]
inhibition [15]: Active
inhibition [16]: Active
Activity [17]: Non-Toxic
inhibition [18]: Active
growth inhibition (GI) [19]: Active
inhibition [20]: Active
inhibition [21]: Active
inhibition [22]: Dose-dependent effect

Reference: ChEMBL document CHEMBL3882246, “Benzoxazole kinase inhibitors and methods of use” (2010)
